According to patent US20250049904A1, “IMMUNOSTIMULATORY COMPOSITIONS” (VICTORIA LINK LIMITED, priority 2021, published 2025):

Tests used:
[1] = system: Plasmodium berghei sporozoites; assay: Mouse model of malaria infection: sporozoite challenge after vaccination; type: in vivo
Protocol: FIG. 3 provides a graphical representation showing that LPX-mRNA vaccines containing CI058 induce functional liver TRM responses that protect from Plasmodium berghei infection. The function of TRM induced with LPX vaccines containing CI058 was tested in a mouse model of malaria infection, which is known to require liver TRM cells to provide protection against infection. Analysis was in C57BL/6 mice with LPX-mOVA versus LPX-mOVA-CI058 vaccines, with prior transfer of OT-I cells to enhance T cell precursor frequency, and challenge was with P. berghei sporozoites from a parasite strain modified to express OVA. (A) Groups of mice (n=12-15) were subject to vaccination only. Percentages of TRM, TEM and TCM OT-I cells in each treatment group determined in liver 30 days later, assessed as in FIG. 1. Black bars: TRM cells; white bars: TEM cells; grey bars: TCM cells. […] (D) Groups of mice were subject to vaccination followed by challenge with 200 OVA-expressing P. berghei sporozoites 30 days later, and parasitemia was measured 6, 7,8, 10 and 12 days after infection. […] Groups of mice (n=12-15) were subject to vaccination, and then percentages of TRM cells, TEM cells and TCM cells in each treatment group were evaluated in liver 30 days later by flow cytometry using MHC/peptide tetramers containing a defined CD8 T cell epitope from RLP6, using gating strategy in FIG. 2. […]

liver TRM cells = assay: LPX-mOVA-CI058 vaccination of NKT cell-deficient mice; liver TRM cells; type: in vivo, TRAJ18-deficient mice; details: LPX vaccine with CI058, 28 days after vaccination
Protocol: Groups (n=3) of C57BL/6 mice or TRAJ18-deficient mice were vaccinated with LPX-mOVA-CI058, or injected with PBS vehicle. The TRAJ18-deficient strain cannot complete the TCR rearrangement required to form the TCR-alpha chain used by type I NKT cells, and therefore are deficient in these cells, while the remaining T cell repertoire is largely intact. No prior transfer of OT-I cells was conducted, so results reflect endogenous T cell responses to vaccination. Mean number of TRM cells in liver 28 days after vaccination for each treatment group (±SEM) are shown; dots represent individual mice. **P<0.01,
C57BL/6 (B6), OT-I^1, and TRAJ18^−/− mice were bred and maintained at the Department of Microbiology and Immunology, The University of Melbourne, or the BRU, Malaghan Institute of Medical Research, New Zealand. […]
Lymphocytes were stained with monoclonal antibodies for: CD8a (53-6.7), Ly5.1 (A20), CD44 (IM7), CXCR6 (SA051D1), CX3CR1 (SA011F11), from BioLegend (Australian Biosearch, Karrinyup, WA. Australia), and CD62L (MEL-14) and CD69 (H1.2F3), from eBioscience (Jomar Life Research, Scoresby, VIC, Australia). […] Single-color positive control samples were used to adjust compensation and cells were analyzed by flow cytometry on a LSR Fortessa (BD Biosciences), or LSRII SORP using Flowjo software (Tree Star Inc.).

CCCCCCCCCCCCCCCCCCCCCCCCCC(=O)N[C@@H](CO[C@H]1O[C@H](CSCC(=O)Nc2ccc(C3=C4C(C)=CC(C)=[N+]4[B-](F)(F)n4c(C)cc(C)c43)cc2)[C@H](O)[C@H](O)[C@H]1O)[C@H](O)[C@H](O)CCCCCCCCCCCCCC [CI058, (2S,3S,4R)-1-(6-Deoxy-6-((2-((4-(5,5-difluoro-1,3,7,9-tetramethyl-5H-4λ4,5λ4-dipyrrolo[1,2-c:2′,1′-f][1,3,2]diazaborinin-10-yl)phenyl)amino)-2-oxoethyl)thio)-α-D-galactopyranosyloxy)-2-hexacosanoylamino-3,4-octadecandiol]
protection against sporozoite challenge ([1]; 200 OVA-expressing P. berghei sporozoites 30 days after LPX-mOVA vaccination, OT-I transfer): provide protection against challenge with P. berghei sporozoites | blood parasitemia ([1]; after challenge with OVA-expressing P. berghei sporozoites): significantly limit blood parasitemia | liver TRM cell accumulation in NKT cell-deficient mice (liver TRM cells): no liver TRM cell accumulation is induced
